Source: patent publication US20180328927A1 (HUNAN SKYWORLD BIOTECHNOLOGIES CO., priority 2015, published 2018)
Entries after “also recorded” stand apart in the source; their conditions may differ. Where two headings read alike, the source gives them in different places.

Assays:
[1] = test system: anti-SAM monoclonal antibodies; test: Cross-reaction of anti-SAM antibody with MAT substrates ATP and L-Met, direct competitive ELISA; assay type: binding; details: for Cross-reaction (%): relative to SAM standard at 50% inhibition
Method: (A) Antigen-coating method: A PLL or BSA-conjugated SAM antigen is pre-coated on a solid-phase ELISA micro-titer plate that is then blocked with BSA solution. The antigen to be detected (SAM sample), then HRP-conjugated anti-SAM antibody are added and incubated at the same time. The antigen to be tested and the coating antigen compete for the enzyme-labeled antibody. After incubation and washing, the enzyme-labeled antibody bound to the coating antigen is retained, and the enzyme-labeled antibody that binds to the antigen to be detected (free antigen) is washed away. Finally, adding TMB substrate to the reaction wells. The final coloration result is inversely proportional to the amount of the antigen to be detected, that is, the higher the OD450 value, the lower the SAM concentration in the sample to be measured. In the course of the experiment, a series of SAM solutions with a known concentration were used as standards in the same ELISA micro-titer plate for the standard curve of the assay. Based on the standard curve, an equation showing how OD450 readings and values of the known standard concentration are related can be obtained. Put the sample OD450 into the equation to get the corresponding concentration value of the sample.
The ELISA plates were coated with PLL SAM antigen. […] The HRP-anti-SAM antibody was diluted at 1:25000 with HRP antibody diluent. Added 30 μl standards and cross-reacting substances ATP and Met per well, and 70 μl diluted HRP-anti-SAM antibody per well and incubated at 37° C. for 1 h. Washed the plate, added 100 μl TMB at 37° C. for 15 min, added 50 μl stop solution and read OD450.
A/A0; reaction rate (A0 is the OD450 reading at 0 nM, A represents any OD450 reading of wells that have different amount of free small molecule antigen competing.)

MAT-II in HepG2 cells = molecular target: T1, MAT-II in HepG2 cells (Homo sapiens, UniProt P31153); test: Intracellular MAT activity in HepG2 cells after GSNO pretreatment and Met; assay type: cell-based
T1 construct: endogenous in cells; host or cells: HepG2

MAT-III/I in L02 cells = test: Intracellular MAT activity in L02 cells after GSNO pretreatment and Met; assay type: cell-based, human
[2] = molecular target: methionine adenosyltransferase (MAT) (Escherichia coli, UniProt P0A817)
[3] = cross-reacting substance 120 nM
[4] = cross-reacting substance 1200 nM
[5] = cross-reacting substance 3960 nM
[6] = cross-reacting substance 12000 nM

Nc1ncnc2c1ncn2[C@@H]1O[C@H](COP(=O)(O)OP(=O)(O)OP(=O)(O)O)[C@@H](O)[C@H]1O [ATP, adenosine triphosphate]
A/A0 (reaction rate) [1, 3]: 1.051
A/A0 (reaction rate) [1, 4]: 1.001
A/A0 (reaction rate) [1, 5]: 1.095
A/A0 (reaction rate) [1, 6]: 1.086
Cross-reaction (%) [1]: <1%

N[C@@H](CCC(=O)N[C@@H](CSN=O)C(=O)NCC(=O)O)C(=O)O [GSNO, nitrosoglutathione]
effect of GSNO nitrosylation on MAT-II (MAT-II in HepG2 cells; 1 mM GSNO pretreatment): minor effect on MAT-II; also recorded: no inhibitory effect on MAT-II
effect of GSNO nitrosylation on MAT-III/I (MAT-III/I in L02 cells; 1 mM GSNO pretreatment, Met stimulation): inhibition of MAT-III or MAT-I after nitrosation of GSNO was obvious; also recorded: inhibitory effect of GSNO nitrosylation on MAT-III/I was obvious
effect of GSNO nitrosylation on MAT activity (MAT-III/I in L02 cells; in the presence of 2 mM Met): remained obvious

[Cl-].[K+] [KCl]
A/A0 ([2]; KCl 50 mM, 20 mM MgSO4, 100 mM Tris, ATP 5 mM, Met 4 mM, MAT 1 mg/ml): 0.1983
A/A0 ([2]; KCl 100 mM): 0.1938
A/A0 ([2]; KCl 150 mM): 0.1911
A/A0 ([2]; KCl 200 mM): 0.1973
A/A0 ([2]; KCl 250 mM): 0.2079
A/A0 ([2]; KCl 300 mM): 0.2106
A/A0 ([2]; KCl 400 mM): 0.1995

CSCC[C@H](N)C(=O)O [Met, methionine]
SAM (nM) synthesized by MAT (MAT-II in HepG2 cells; 0.5 mM Met 24 h, normalized to 2×10^7 cells, 0 mM Met control 247.4761): 222.3993 nM
SAM (nM) synthesized by MAT (MAT-II in HepG2 cells; 2 mM Met 24 h): 174.3621 nM
effect on MAT-II activity (MAT-II in HepG2 cells; Met 0.5 and 2 mM): the higher the Met concentration, the lower the activity of MAT-II; also recorded: inhibits MAT-II activity
A/A0 (reaction rate) [1, 3]: 1.042
A/A0 (reaction rate) [1, 4]: 1.046
A/A0 (reaction rate) [1, 5]: 1.012
A/A0 (reaction rate) [1, 6]: 1.095
Cross-reaction (%) [1]: <1%
SAM (nM) synthesized by MAT (MAT-III/I in L02 cells; 0.5 mM Met 24 h, normalized to 2×10^7 cells, 0 mM Met control 274.4578162): 377.7 nM
effect on MAT-III/I activity (MAT-III/I in L02 cells; 500 μM Met, 24 hours): stimulated the activity of MAT-III or MAT-I; also recorded: stimulated MAT-III/I activity
effect on MAT-III/I activity (MAT-III/I in L02 cells; 2 mM Met): No stimulatory effects; also recorded: stimulation was not significant
SAM (nM) synthesized by MAT (MAT-III/I in L02 cells; 2 mM Met 24 h): 236.4 nM

O=S(=O)([O-])[O-].[Mg+2] [MgSO4]
A/A0 ([2]; MgSO4 4 mM, 250 mM KCl, 100 mM Tris, ATP 5 mM, Met 4 mM, MAT 1 mg/ml): 0.2199
A/A0 ([2]; MgSO4 10 mM): 0.2047
A/A0 ([2]; MgSO4 30 mM): 0.1867
A/A0 ([2]; MgSO4 50 mM): 0.1766
A/A0 ([2]; MgSO4 70 mM): 0.1734
A/A0 ([2]; MgSO4 100 mM): 0.1724
decrease of A/A0 ([2]; MgSO4 from 4 mM to 100 mM): 0.475

NC(CO)(CO)CO [Tris, tris (hydroxymethyl) aminomethane]
A/A0 ([2]; Tris 20 mM, after optimal Mg2+ and K+ were determined): 0.4981
A/A0 ([2]; Tris 50 mM): 0.2567
A/A0 ([2]; Tris 100 mM): 0.2168
A/A0 ([2]; Tris 200 mM): 0.2472
